# In PubChem BioAssay AID2060506 (Molecular Pharmacology Branch, DTP, NCI, 2025):
# Tested on: 598228-144-R-J1-PDC complex spheroid viability
# Assay: Anticancer human tumor 598228-144-R-J1-PDC patient-derived serous endometrial adenocarcinoma cell line growth inhibition [GQUAD]
# Details: for IC50: curve of first compound; for viability, T/C: stronger effect = lower value
# Description: DNA G-quadruplex Stabilizer Agents in Combinations in Complex Spheroids
# A high-throughput screen of multi-cell type tumor spheroids was designed to identify active combinations of DNA G-quadruplex stabilizer agents and targeted small molecules. Complex spheroids include a stromal component modeled by human endothelial cells (HUVEC) and fibroblasts modeled by human mesenchymal stem cells (MSCs). The concentration ranges selected for each drug and investigational agent were based upon clinically achievable concentrations if the clinical Cmax of the agent was known.
# Compounds. The drugs and investigational agents: pidnarulex (CX-5461; NSC782164), APTO-253 (NSC789042), BRACO-19 (NSC847499), peposertib (NSC802822), ceralasertib (NSC780249), elimusertib (NSC800525), camonsertib (NSC841442), AZD-1390 (NSC803789), olaparib (NSC753686), talazoparib (NSC767125), ART-558 (NSC835418), sotorasib (NSC818433), MRTX-1133 (NSC836407), SN-38 (NSC673596), topotecan (NSC609699), etoposide (NSC141540), doxorubicin (NSC123127), gemcitabine (NSC613327), 5-fluorouracil (NSC19893), paclitaxel (NSC125973), vemurafenib (NSC761431), panobinostat (NSC761190), R-306465 (JNJ-16241199; NSC773264), adavosertib (NSC754352), TP-3654 (NSC805149), carboplatin (NSC241240), KSQ-4279 (NSC840948), and staurosporine (NSC755774) were obtained from the National Cancer Institute (NCI) Developmental Therapeutics Program Chemical Repository (34). The FDA-approved anticancer drug set is available from the NCI Developmental Therapeutics Program. […] The stock solutions were prepared in dimethyl sulfoxide (DMSO, Sigma-Aldrich, St. Louis, MO, cat. D2650) at 800-fold the tested concentration and stored at -70 degrees C prior to their use. All drugs and investigational agents were tested over a range starting from a high concentration at or near the clinical Cmax and decreasing in half-log increments. If the clinical Cmax for an agent had not been determined, the highest concentration tested was 10 microM.
# 2.3 Cell Culture. All cells were maintained in an incubator at 37 degrees C and 5% CO2 with 95% humidity. The PDC lines were cultured according to standard operating procedures established by the NCI PDMR. All PDCs were thawed and cultured in Matrigel-coated flasks prepared with a working solution of 1X Ham's F-12 nutrient mix, without supplementation (Invitrogen, cat. 11765054), 100 U/mL penicillin-streptomycin (Invitrogen, cat. 15140122), and 2.5% Matrigel (Corning Inc., cat. 354248) for the first three passages. The 857933-349-R-J2-PDC line was cultured in 6C/Colon 1B media, which includes advanced DMEM/F-12 (Thermo Fisher Scientific, cat. 12634028), 10 mM HEPES (Thermo Fisher Scientific, cat. 15630080), 1X GlutaMAX supplement (Thermo Fisher Scientific, cat. 35050061), 0.1 mg/mL primocin (InvivoGen, cat. ant-pm-2), 10% defined fetal bovine serum, heat inactivated (HyClone Laboratories Inc., cat. SH30070.03HI), 50% L-WRN conditioned media (ATCC, cat. CRL-3276), 1.25 mM N-Acetyl-L-cysteine (Sigma-Aldrich, cat. A9165), 10 mM nicotinamide (Sigma-Aldrich, cat. N0636), 1X B-27 supplement (Thermo Fisher Scientific, cat. 17504044), 1X N-2 supplement (Thermo Fisher Scientific, cat. 17502048), 10 microM Y-27632 dihydrochloride (Tocris Bioscience, cat. 1254), and 50 ng/mL human EGF recombinant protein (Thermo Fisher Scientific, cat. PHG0311). The 485176-168-R4-J1-PDC line was cultured in Panc media, which includes all 6C/Colon 1B media components plus 100 ng/mL human FGF-10 (Thermo Fisher Scientific, cat. 100-26), 500 nM SB-431542 (Selleckchem, cat. S1067), and gastrin (Tocris, cat. 3006).
# […]
# [1] = second compound 0.0316 µM, first compound 0.0316 µM
# [2] = second compound 0.0316 µM, first compound 0.1 µM
# [3] = second compound 0.0316 µM, first compound 0.316 µM
# [4] = second compound 0.0316 µM, first compound 1 µM
# [5] = second compound 0.0316 µM, first compound 3.16 µM
# [6] = second compound 0.0316 µM, first compound 10 µM
# [7] = second compound 0.1 µM, first compound 0.0316 µM
# [8] = second compound 0.1 µM, first compound 0.1 µM
# [9] = second compound 0.1 µM, first compound 0.316 µM
# [10] = second compound 0.1 µM, first compound 1 µM
# [11] = second compound 0.1 µM, first compound 3.16 µM
# [12] = second compound 0.1 µM, first compound 10 µM
# [13] = second compound 0.316 µM, first compound 0.0316 µM
# [14] = second compound 0.316 µM, first compound 0.1 µM
# [15] = second compound 0.316 µM, first compound 0.316 µM
# [16] = second compound 0.316 µM, first compound 1 µM
# [17] = second compound 0.316 µM, first compound 3.16 µM
# [18] = second compound 0.316 µM, first compound 10 µM
# [19] = second compound 1 µM, first compound 0.0316 µM
# [20] = second compound 1 µM, first compound 0.1 µM
# [21] = second compound 1 µM, first compound 0.316 µM
# [22] = second compound 1 µM, first compound 1 µM
# [23] = second compound 1 µM, first compound 3.16 µM
# [24] = second compound 1 µM, first compound 10 µM
# [25] = second compound 3.16 µM, first compound 0.0316 µM
# [26] = second compound 3.16 µM, first compound 0.1 µM
# [27] = second compound 3.16 µM, first compound 0.316 µM
# [28] = second compound 3.16 µM, first compound 1 µM
# [29] = second compound 3.16 µM, first compound 3.16 µM
# [30] = second compound 3.16 µM, first compound 10 µM
# [31] = second compound 10 µM, first compound 0.0316 µM
# [32] = second compound 10 µM, first compound 0.1 µM
# [33] = second compound 10 µM, first compound 0.316 µM
# [34] = second compound 10 µM, first compound 1 µM
# [35] = second compound 10 µM, first compound 3.16 µM
# [36] = second compound 10 µM, first compound 10 µM
# 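Also: spheroids exposed to the agents for one week before reading.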
# 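For viability, T/C in this document: percent of vehicle DMSO control viability so 100% = untreated growth.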
structure (smiles),measurement,setting,value
COc1cccc2c1C(=O)c1c(O)c3c(c(O)c1C2=O)CC(O)(C(=O)CO)CC3OC1CC(N)C(O)C(C)O1 (centres undefined) + Cc1[nH]c2ccc(F)cc2c1-c1nc2c3cccnc3c3ncccc3c2[nH]1,IC50,second compound 0.0316 µM,658 nM
same,IC50,second compound 0.1 µM,889 nM
same,IC50,second compound 0.316 µM,1040 nM
same,IC50,second compound 1 µM,418 nM
same,IC50,second compound 3.16 µM,< 31.6 nM
same,IC50,second compound 10 µM,646 nM
same,"viability, T/C",[1],97.1%
same,"viability, T/C",[2],81.6%
same,"viability, T/C",[3],69.8%
same,"viability, T/C",[4],42.8%
same,"viability, T/C",[5],5.14%
same,"viability, T/C",[6],0.27%
same,"viability, T/C",[7],88.7%
same,"viability, T/C",[8],77.2%
same,"viability, T/C",[9],78.6%
same,"viability, T/C",[10],47%
same,"viability, T/C",[11],2.77%
same,"viability, T/C",[12],0.42%
same,"viability, T/C",[13],84.7%
same,"viability, T/C",[14],72.8%
same,"viability, T/C",[15],74.7%
same,"viability, T/C",[16],51.9%
same,"viability, T/C",[17],3.76%
same,"viability, T/C",[18],1.38%
same,"viability, T/C",[19],67.3%
same,"viability, T/C",[20],48.8%
same,"viability, T/C",[21],54.3%
same,"viability, T/C",[22],34.7%
same,"viability, T/C",[23],4.19%
same,"viability, T/C",[24],1.39%
same,"viability, T/C",[25],38.9%
same,"viability, T/C",[26],36.8%
same,"viability, T/C",[27],31.8%
same,"viability, T/C",[28],25.4%
same,"viability, T/C",[29],1.9%
same,"viability, T/C",[30],1.11%
same,"viability, T/C",[31],57.1%
same,"viability, T/C",[32],72.3%
same,"viability, T/C",[33],49%
same,"viability, T/C",[34],46.1%
same,"viability, T/C",[35],5.49%
same,"viability, T/C",[36],0.68%
O=c1[nH]cc(F)c(=O)[nH]1 + Cc1[nH]c2ccc(F)cc2c1-c1nc2c3cccnc3c3ncccc3c2[nH]1,IC50,second compound 0.0316 µM,> 10000 nM
same,IC50,second compound 0.1 µM,> 10000 nM
same,IC50,second compound 0.316 µM,> 10000 nM
same,IC50,second compound 1 µM,> 10000 nM
same,IC50,second compound 3.16 µM,< 31.6 nM
same,IC50,second compound 10 µM,> 10000 nM
same,"viability, T/C",[1],106%
same,"viability, T/C",[2],112%
same,"viability, T/C",[3],90.2%
same,"viability, T/C",[4],94.3%
same,"viability, T/C",[5],89.6%
same,"viability, T/C",[6],81.4%
same,"viability, T/C",[7],97.4%
same,"viability, T/C",[8],102%
same,"viability, T/C",[9],85.1%
same,"viability, T/C",[10],109%
same,"viability, T/C",[11],91.8%
same,"viability, T/C",[12],93.9%
same,"viability, T/C",[13],98.6%
same,"viability, T/C",[14],99.9%
same,"viability, T/C",[15],74.9%
same,"viability, T/C",[16],85.8%
same,"viability, T/C",[17],70.4%
same,"viability, T/C",[18],67.2%
same,"viability, T/C",[19],57.5%
same,"viability, T/C",[20],66.9%
same,"viability, T/C",[21],58%
same,"viability, T/C",[22],55.5%
same,"viability, T/C",[23],54.5%
same,"viability, T/C",[24],60.7%
same,"viability, T/C",[25],38.1%
same,"viability, T/C",[26],39.2%
same,"viability, T/C",[27],49.5%
same,"viability, T/C",[28],48.1%
same,"viability, T/C",[29],48.8%
same,"viability, T/C",[30],47%
same,"viability, T/C",[31],66.8%
same,"viability, T/C",[32],62.6%
same,"viability, T/C",[33],63.8%
same,"viability, T/C",[34],60.8%
same,"viability, T/C",[35],57.4%
same,"viability, T/C",[36],54.2%
